# Laboratory results reported in patent publication US20080242688A1, “Method 741” (ASTRAZENECA AB, priority 2007, published 2008).
# Where “and” joins values, the source holds several entries; their conditions need not be identical. Equal entries are not always repeated.
# Tests used:
# dogs = assay: Cardiovascular/ECG telemetry in dogs; type: in vivo; settings: dog, oral
# Procedure: (§1) The cardiovascular effects of orally administered AZD0328 were assessed dogs implanted with telemetry transmitters (Table 3). The main purpose of the study was to evaluate effects on the QT interval of the ECG during a 7-days dosing period followed by 5 days of recovery, thus enabling assessment of any accumulation of effects and the recovery back to baseline. Systolic, diastolic and mean arterial blood pressure, heart rate, lead II ECG and core body temperature were recorded continuously. The PR, QRS and QT intervals of the ECG were measured, and the QT interval was corrected for changes in heart rate using the method of Van de Water (QTcV).
# [1] = Cardiovascular/ECG telemetry in dogs; type: in vivo; settings: in vivo, dog, low dose group, read-out: total Cmax
# Procedure: as §1
# [2] = Single oral dose pharmacokinetics in healthy human volunteers; type: in vivo; parameters: AUC/dose: unit not given beside the values; settings: for Cmax / Tmax / AUC / AUC(0-t) / half-life: human, plasma; for Cmax / AUC / AUC(0-t) / half-life / Cmax/Dose / AUC/dose / CL/F: geometric mean; for Tmax: median
# Procedure: Total oral doses of AZD0328 in the range 0.025-0.68 mg produced mean plasma concentrations of 0.6-15 nM, consistent with the range of plasma concentrations found to be associated with improved performance in the spatial delayed response test in monkeys. Total oral doses of AZD0328 in the range 0.005-2 mg produced mean plasma concentrations of 0.17-43.9 nM, within the range of plasma concentrations found to be associated with improved performance in rodent models.
# [3] = Multiple dose PK/TK, rabbit; type: in vivo; settings: day 18; for AUC / Cmax / Tmax: female, New Zealand White, in vivo, sc
# Description: (§2) This section provides a summary of the pharmacokinetic and metabolism properties of AZD0328 derived from in vivo studies. […] The derived PK/TK parameters from these studies are presented in Table 4 for single dose studies (DMR4, 0619LR, 20030191PCR, DMO16, DMB10, DMW12, 50190, 0190DD and 03.330/1), and are presented in Table 5 multiple dose PK/TK studies (DMR4, 0612AR, DMB15, 50190, 0190DD and 0295AD).
# [4] = biological target: α7 receptor binding sites (Rattus norvegicus, UniProt Q05941); type: in vivo; settings: sc, 2-4 h
# Chain of α7 receptor binding sites (Q05941 23-502): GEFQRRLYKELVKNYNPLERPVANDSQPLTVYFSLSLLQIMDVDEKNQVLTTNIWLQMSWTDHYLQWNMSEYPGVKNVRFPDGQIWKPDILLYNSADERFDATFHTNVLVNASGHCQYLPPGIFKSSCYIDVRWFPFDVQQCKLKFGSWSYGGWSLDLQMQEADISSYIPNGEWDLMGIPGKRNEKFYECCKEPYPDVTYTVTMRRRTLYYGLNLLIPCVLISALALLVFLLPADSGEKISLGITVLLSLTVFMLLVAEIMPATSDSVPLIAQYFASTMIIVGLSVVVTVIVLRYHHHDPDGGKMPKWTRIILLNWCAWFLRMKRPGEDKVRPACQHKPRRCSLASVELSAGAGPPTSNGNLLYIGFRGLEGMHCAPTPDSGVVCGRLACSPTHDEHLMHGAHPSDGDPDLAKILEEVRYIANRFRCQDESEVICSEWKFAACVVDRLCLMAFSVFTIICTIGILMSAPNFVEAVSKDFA
# [5] = Pentylenetetrazole-induced seizure threshold; settings: in vivo; rat, oral; read-out: NOAEL, proconvulsant activity
# Procedure: AZD0328 was assessed for its ability to influence the threshold to clonic convulsions caused by an intravenous infusion of pentylenetetrazole (PTZ) in rats (Table 3).
# [6] = Single dose PK/TK, ferret; settings: in vivo
# Description: as §2
# mice = assay: Novel Object Recognition (NOR); type: in vivo, mouse; settings: 0.00178 mg/kg sc
# Description: We have now discovered that much lower doses of AZD0328 that provide much lower plasma concentrations, can improve performance of cognitive tasks in mice, rats, and monkeys. AZD0328 at low doses increased novel object recognition in mice. In this procedure, mice were habituated to a chamber in which they were then allowed to “sample” two objects before being removed from the chamber. After a delay during which one of the objects was replaced with a novel object, the mice were returned to the chamber for testing. If the delay was brief, mice spent more time exploring the novel object than the familiar object, which is thought to indicate that the mice “recognize” […], a measure of episodic memory.
# AZD0328 increased novel object recognition in mice (Table 2). In this procedure, mice were habituated to a chamber in which they were then allowed to “sample” two objects before being removed from the chamber. After a delay during which one of the objects was replaced with a novel object, the mice were returned to the chamber for testing. If the delay was brief, mice spent more time exploring the novel object than the familiar object, which is thought to indicate that the mice “recognize” that the novel object is novel.
# Mouse lymphoma = Mouse lymphoma test; type: cell-based
# Description: The genotoxic potential of AZD0328 has been evaluated in the Ames test and in the Mouse lymphoma test. AZD0328 was not mutagenic in either of these tests.
# [7] = rabbit 2F, DMB15, subcutaneous 1.15 mg/kg (3 μmol/kg)
# [8] = rabbit 3F, DMB15, subcutaneous 0.115 mg/kg (0.3 μmol/kg)
# [9] = rabbit 3F, DMB15, subcutaneous 0.269 mg/kg (0.7 μmol/kg)
# [10] = rabbit 3F, DMB15, subcutaneous 0.384 mg/kg (1 μmol/kg)
# [11] = rabbit 3F, DMB15, subcutaneous 3.84 mg/kg (10 μmol/kg)
# [12] = male, ferret 4M, DMO16, single oral 10 mg/kg (46 μmol/kg)
smiles,measurement,setting,value
"c1cnc2c(c1)C[C@@]1(CN3CCC1CC3)O2 [AZD0328, (R)-Spiro[1-azabicyclo[2.2.2]octane-3,2′(3′H)-furo[2,3-b]pyridine]]",single dose followed by frequent vomiting,dogs,17.3 mg/kg and 34.6 mg/kg
same,Cmax,"[1]; oral, day 7 (lowest)",800 nM
same,Cmax,"[1]; po, day 4",1500 nM
same,Cmax,[2]; single oral dose 0.005 mg,0.17 nM
same,Tmax,[2]; single oral dose 0.005 mg,0.8 h
same,AUC,[2]; single oral dose 0.025 mg,0.0061 µM·h
same,AUC(0-t),[2]; single oral dose 0.025 mg,0.0046 µM·h
same,Cmax,[2]; single oral dose 0.025 mg,0.6 nM
same,half-life,[2]; single oral dose 0.025 mg,6.3 h
same,Tmax,[2]; single oral dose 0.025 mg,1.3 h
same,AUC,[2]; single oral dose 0.075 mg,0.0169 µM·h
same,AUC(0-t),[2]; single oral dose 0.075 mg,0.0156 µM·h
same,Cmax,[2]; single oral dose 0.075 mg,2.1 nM
same,half-life,[2]; single oral dose 0.075 mg,5.9 h
same,Tmax,[2]; single oral dose 0.075 mg,1.5 h
same,AUC,[2]; single oral dose 0.23 mg,0.0652 µM·h
same,AUC(0-t),[2]; single oral dose 0.23 mg,0.0588 µM·h
same,Cmax,[2]; single oral dose 0.23 mg,6.4 nM
same,half-life,[2]; single oral dose 0.23 mg,6.7 h
same,Tmax,[2]; single oral dose 0.23 mg,1.5 h
same,AUC,[2]; single oral dose 0.68 mg,0.144 µM·h
same,AUC(0-t),[2]; single oral dose 0.68 mg,0.133 µM·h
same,Cmax,[2]; single oral dose 0.68 mg,15 nM
same,half-life,[2]; single oral dose 0.68 mg,6 h
same,Tmax,[2]; single oral dose 0.68 mg,2.2 h
same,AUC,[2]; single oral dose 1.35 mg,0.333 µM·h
same,AUC(0-t),[2]; single oral dose 1.35 mg,0.3 µM·h
same,Cmax,[2]; single oral dose 1.35 mg,31 nM
same,half-life,[2]; single oral dose 1.35 mg,6.9 h
same,Tmax,[2]; single oral dose 1.35 mg,3.2 h
same,AUC,[2]; single oral dose 2 mg,0.421 µM·h
same,AUC(0-t),[2]; single oral dose 2 mg,0.395 µM·h
same,Cmax,[2]; single oral dose 2 mg,43.9 nM
same,half-life,[2]; single oral dose 2 mg,5.6 h
same,Tmax,[2]; single oral dose 2 mg,2.5 h
same,Cmax/Dose,[2]; single oral dose 0.005 mg,0.007
same,AUC/dose,[2]; single oral dose 0.025 mg,0.053
same,CL/F,[2]; single oral dose 0.025 mg,19.0 L/h
same,Cmax/Dose,[2]; single oral dose 0.025 mg,0.006
same,AUC/dose,[2]; single oral dose 0.075 mg,0.049
same,CL/F,[2]; single oral dose 0.075 mg,20.5 L/h
same,Cmax/Dose,[2]; single oral dose 0.075 mg,0.006
same,AUC/dose,[2]; single oral dose 0.23 mg,0.061
same,CL/F,[2]; single oral dose 0.23 mg,16.3 L/h
same,Cmax/Dose,[2]; single oral dose 0.23 mg,0.006
same,AUC/dose,[2]; single oral dose 0.68 mg,0.046
same,CL/F,[2]; single oral dose 0.68 mg,21.9 L/h
same,Cmax/Dose,[2]; single oral dose 0.68 mg,0.005
same,AUC/dose,[2]; single oral dose 1.35 mg,0.054
same,CL/F,[2]; single oral dose 1.35 mg,18.7 L/h
same,Cmax/Dose,[2]; single oral dose 1.35 mg,0.005
same,AUC/dose,[2]; single oral dose 2 mg,0.046
same,CL/F,[2]; single oral dose 2 mg,22.0 L/h
same,Cmax/Dose,[2]; single oral dose 2 mg,0.005
same,mean plasma concentrations,[2]; total oral doses 0.005-2 mg,0.17 to 43.9 nM
same,mean plasma concentrations,[2]; total oral doses 0.025-0.68 mg,0.6 to 15 nM
same,AUC,[3]; [7],636 ng·h/mL to 846 ng·h/mL and 2.9 µM·h to 3.9 µM·h
same,Cmax,[3]; [7],224 ng/mL to 296 ng/mL and 1.04 µM to 1.37 µM
same,Tmax,[3]; [7],0.3 to 1 h
same,AUC,[3]; [8],50.2 ng·h/mL and 0.205 µM·h
same,Cmax,[3]; [8],24.7 ng/mL and 111 nM
same,Tmax,[3]; [8],0.317 to 0.97 h
same,AUC,[3]; [9],0.872 µM·h
same,Cmax,[3]; [9],138 ng/mL and 583 nM
same,Tmax,[3]; [9],0.217 to 0.483 h
same,AUC,[3]; [10],232 ng·h/mL and 1.01 µM·h
same,Cmax,[3]; [10],78.1 ng/mL and 317 nM
same,Tmax,[3]; [10],0.25 to 2.02 h
same,AUC,[3]; [11],2510 ng·h/mL and 11.6 µM·h
same,Cmax,[3]; [11],677 ng/mL and 3.13 µM
same,Tmax,[3]; [11],0.483 to 2.18 h
same,AUC/dose,[3]; [7],0.212-0.282
same,AUC/dose,[3]; [8],0.148 ± 0.038
same,AUC/dose,[3]; [9],0.270 ± 0.106
same,AUC/dose,[3]; [11],0.251 ± 0.129
same,"Dose active: [125I]-α-bungarotoxin binding ex vivo, increased receptor number",[4],0.1 µg/kg
same,NOAEL,[5],64.9 mg/kg
same,half-life,"[6]; ferret, read-out: elimination half-life",< 5 h
same,AUC,[6]; [12],4000 ng·h/mL and 18.3 µM·h
same,Cmax,[6]; [12],590 ng/mL and 2.73 µM
same,Tmax,[6]; [12],0.25 to 1 h
same,half-life,"[6]; male, ferret 4M, DMO16, single oral 10 mg/kg (46 μmol/kg), read-out: T½ (converted)",3.98 ± 1.66 h
same,time of administration prior to object sampling at which object recognition index was still significantly increased,mice,≤ 48 h
same,mutagenicity,Mouse lymphoma,not mutagenic
